# Measurements: ChEMBL document CHEMBL5236598, “Lead Optimization and Avoidance of Metabolic-perturbing Motif Developing Novel Diarylpyrimidines as Potent HIV-1 NNRTIs” (J Med Chem, 2022)
# Key:
# [1] = Half life in ICR mouse at 10 mg/kg, po measured for 12 hrs by LC-MS/MS analysis; assay type: ADME, organism-based; details: in vivo
# [2] = Metabolic stability in human liver microsomes assessed as half life preincubated for 10 mins followed by NADPH regenerating system addition and measured after 2 hrs by LC-MS/MS analysis; assay type: ADME, Microsome; details: time 130 min
# [3] = Half life in ICR mouse at 2 mg/kg, iv measured for 12 hrs by LC-MS/MS analysis; assay type: ADME, organism-based; details: in vivo
# [4] = Subacute toxicity in Kunming mouse assessed as anorexia at 50 mg/kg/day, po administered for 2 weeks; assay type: organism-based; details: in vivo, 336 h
# [5] = Subacute toxicity in Kunming mouse assessed as lethargy at 50 mg/kg/day, po administered for 2 weeks; assay type: organism-based; details: in vivo, 336 h
# [6] = AUC (0 to t) in ICR mouse at 10 mg/kg, po measured for 12 hrs by LC-MS/MS analysis; assay type: ADME, organism-based; design: dose 10 mg/kg, time 12 hrs, route po; details: in vivo
# [7] = Subacute toxicity in Kunming mouse assessed as abnormalities in kidneys at 50 mg/kg/day, po administered for 2 weeks; assay type: organism-based; details: in vivo, 336 h
# [8] = Cmax in ICR mouse at 10 mg/kg, po measured for 12 hrs by LC-MS/MS analysis; assay type: ADME, organism-based; design: time 12 hrs, dose 10 mg/kg, route po; details: in vivo
# [9] = Tmax in ICR mouse at 10 mg/kg, po measured for 12 hrs by LC-MS/MS analysis; assay type: ADME, organism-based; details: in vivo
# [10] = AUC (0 to t) in ICR mouse at 2 mg/kg, iv measured for 12 hrs by LC-MS/MS analysis; assay type: ADME, organism-based; design: dose 2 mg/kg, time 12 hrs, route iv; details: in vivo
# [11] = Metabolic stability in human liver microsomes assessed as parent compound remaining preincubated for 10 mins followed by NADPH regenerating system addition and measured after 60 mins by LC-MS/MS analysis; assay type: ADME, Microsome; details: time 70 min, read-out: Stability
# [12] = Acute toxicity in Kunming mouse assessed as abnormal behaviour at 2000 mg/kg, po administered for 7 days; assay type: organism-based; details: in vivo, 168 h, time 7 day
# [13] = Acute toxicity in Kunming mouse assessed as change in body weight at 2000 mg/kg, po administered for 7 days; assay type: organism-based; details: in vivo, 168 h, time 7 day
# [14] = Aqueous solubility of compound at pH 7 at 0.1 to 10 mg; assay type: physicochemical; details: aqueous medium, dose 0.1-10 mg
# [15] = Subacute toxicity in Kunming mouse assessed as abnormalities in liver at 50 mg/kg/day, po administered for 2 weeks; assay type: organism-based; details: in vivo, 336 h
# [16] = Cmax in ICR mouse at 2 mg/kg, iv measured for 12 hrs by LC-MS/MS analysis; assay type: ADME, organism-based; design: time 12 hrs, dose 2 mg/kg, route iv; details: in vivo
# [17] = Subacute toxicity in Kunming mouse assessed as abnormalities in spleen at 50 mg/kg/day, po administered for 2 weeks; assay type: organism-based; details: in vivo, 336 h
# [18] = Aqueous solubility of compound at pH 7.4 at 0.1 to 10 mg; assay type: physicochemical; details: aqueous medium, dose 0.1-10 mg
# [19] = Subacute toxicity in Kunming mouse assessed as appearance of lesions in heart at 50 mg/kg/day, po administered for 2 weeks; assay type: organism-based; details: in vivo, 336 h
# [20] = Subacute toxicity in Kunming mouse assessed as signs of toxicity at 50 mg/kg/day, po administered for 2 weeks; assay type: organism-based; details: in vivo, 336 h
# [21] = AUC (0 to infinity) in ICR mouse at 10 mg/kg, po measured for 12 hrs by LC-MS/MS analysis; assay type: ADME, organism-based; design: time 12 hrs, dose 10 mg/kg, route po; details: in vivo
# [22] = Subacute toxicity in Kunming mouse assessed as appearance of lesions in spleen at 50 mg/kg/day, po administered for 2 weeks; assay type: organism-based; details: in vivo, 336 h
# [23] = Oral bioavailability in ICR mouse at 10 mg/kg measured for 12 hrs by LC-MS/MS analysis; assay type: ADME, organism-based; details: in vivo
# [24] = AUC (0 to infinity) in ICR mouse at 2 mg/kg, iv measured for 12 hrs by LC-MS/MS analysis; assay type: ADME, organism-based; design: dose 2 mg/kg, time 12 hrs, route iv; details: in vivo
# [25] = Clearance in ICR mouse at 2 mg/kg, iv measured for 12 hrs by LC-MS/MS analysis; assay type: ADME, organism-based; details: in vivo
# [26] = Subacute toxicity in Kunming mouse assessed as appearance of lesions in lungs at 50 mg/kg/day, po administered for 2 weeks; assay type: organism-based; details: in vivo, 336 h
# [27] = Aqueous solubility of compound at pH 2 at 0.1 to 10 mg; assay type: physicochemical; details: aqueous medium, dose 0.1-10 mg
# [28] = Subacute toxicity in Kunming mouse assessed as appearance of lesions in kidneys at 50 mg/kg/day, po administered for 2 weeks; assay type: organism-based; details: in vivo, 336 h
# [29] = Subacute toxicity in Kunming mouse assessed as abnormalities in heart at 50 mg/kg/day, po administered for 2 weeks; assay type: organism-based; details: in vivo, 336 h
# [30] = Subacute toxicity in Kunming mouse assessed as ruffled fur at 50 mg/kg/day, po administered for 2 weeks; assay type: organism-based; details: in vivo, 336 h
# [31] = Metabolic stability in human liver microsomes assessed as intrinsic clearance preincubated for 10 mins followed by NADPH regenerating system addition and measured after 2 hrs by LC-MS/MS analysis; assay type: ADME, Microsome; details: time 130 min, read-out: CLH
# [32] = Subacute toxicity in Kunming mouse assessed as abnormalities in lungs at 50 mg/kg/day, po administered for 2 weeks; assay type: organism-based; details: in vivo, 336 h
# [33] = Subacute toxicity in Kunming mouse assessed as clonic convulsion at 50 mg/kg/day, po administered for 2 weeks; assay type: organism-based; details: in vivo, 336 h
# [34] = Subacute toxicity in Kunming mouse assessed as appearance of lesions in liver at 50 mg/kg/day, po administered for 2 weeks; assay type: organism-based; details: in vivo, 336 h
# [35] = Tmax in ICR mouse at 2 mg/kg, iv measured for 12 hrs by LC-MS/MS analysis; assay type: ADME, organism-based; details: in vivo
compound,measurement,setting,value
Cc1cc(/C=C/C#N)cc(C)c1Oc1nc(Nc2ccc(C#N)c(F)c2)nc2c1COC2.Cl,half-life,[1],307 min
same,half-life,[2],11.3 min
same,half-life,[3],85.8 min
same,Activity,[4],Non-Toxic
same,Activity,[5],Non-Toxic
same,AUC(0-t) at 12 h,[6],107 ng·h/mL
same,Activity,[7],Non-Toxic
same,Cmax,[8],37.5 ng/mL
same,Tmax,[9],15 min
same,AUC(0-t) at 12 h,[10],250 ng·h/mL
same,remaining at 1 h,[11],5%
same,Activity,[12],Non-Toxic
same,Activity,[13],Non-Toxic
same,solubility,[14],149 µg/mL
same,Activity,[15],Non-Toxic
same,Cmax,[16],484 ng/mL
same,Activity,[17],Non-Toxic
same,solubility,[18],38.9 µg/mL
same,Activity,[19],Non-Toxic
same,Activity,[20],Non-Toxic
same,AUC(0-inf),[21],154 ng·h/mL
same,Activity,[22],Non-Toxic
same,bioavailability,[23],12.1%
same,AUC,[24],255 ng·h/mL
same,CL,[25],1720 mL/min/kg
same,Activity,[26],Non-Toxic
same,solubility,[27],349 µg/mL
same,Activity,[28],Non-Toxic
same,Activity,[29],Non-Toxic
same,Activity,[30],Non-Toxic
same,microsomal CLint,[31],87.6 µL/min/mg
same,Activity,[32],Non-Toxic
same,Activity,[33],Non-Toxic
same,Activity,[34],Non-Toxic
same,Tmax,[35],0 h
